Source: PMC12682123, “Positron emission tomography to assess drug occupancy at peripheral and central incretin receptors” (eBioMedicine, 2025)
Like-named read-outs stand apart in the source and are kept apart here. No end group written: not given here.

Key:
mice = details: central administration; cited from earlier work
Excerpt: One of the advancements of GLP-1R/GIPR co-activation is potentially the reduced nausea, food aversion, and emesis associated with GLP-1R-based treatment, in addition to an even more increased reduction in appetite and calorie intake.[26]^,[39] These effects may be associated with central activation of GLP-1 receptors by these drugs, and it has been proposed that the concurrent activation of central GIPR by tirzepatide exerts an anti-emetic effect, thereby improving tolerability to GLP-1 receptor–mediated side effects.

GIPR [1] = assay: In vivo GIPR drug occupancy in pigs using [^68Ga]S02-GIP-T4 PET; parameters: species or system pig; details: infusion 0.5/50 μg/ml from 30 min before and throughout second scan, n = 1
Method: The study design for GIPR occupancy assessment in pigs was identical to that of GLP-1R, except for the following differences:
The pigs (n = 5) were positioned in the PET/CT scanner in a supine position with either the brain (n = 2) or the pancreas (n = 3) in the FOV when using [^68Ga]S02-GIP-T4. A target dose of 0.5–1 MBq/kg of [^68Ga]S02-GIP-T4, corresponding to a standardised peptide mass dose of 0.1 μg/kg, was administered for both baseline and follow-up scans (Tables 5 and 6). The peptide mass dose was chosen to avoid self-block of the GIPR, and based on previous dose-escalation studies in non-human primates.[16]
SAR441255 was administered subcutaneously at a dose of 100 μg/kg in four pigs, as described above (Table 5). […]
The reconstructed dynamic and whole-body static PET images were analysed using PMOD Base Functionality (PBAS) tool (PMOD Technologies LLC, Zurich, Switzerland) through manual segmentation on trans-axial PET and CT projections. […] The tracer distribution in brain regions was measured by automated segmentation of brain regions. […]
(§2) The convention to the SUV was corrected to the time and administered amount of radioactivity (in MBq) and the weight (in kilograms) of the pig.
The target engagement or drug occupancy for each experiment was calculated by subtracting the SUV in a tissue at the follow-up scan from the SUV in the same tissue at the baseline scan. […]

human GLP-1R = details: 10 nM tracer; for reduction of [^68Ga]Ga-DO3A-Exendin-4 binding: 60 min, RT, p < 0.0001
Method: The receptor specificity assay was repeated four times.
The following procedures were then performed for both assays: After incubation, the sections were washed with cold PBS (3× 1 min), dipped in MilliQ water, and air-dried at 37 °C for 10 min. Finally, the sections were exposed to digital phosphorimager plates (BAS-MS, Fujifilm) overnight (>10 radioactive half-lives) followed by digitalisation using a phosphorimage scanner (Amersham Typhoon FLA 9500 Phosphor Imager, GE) with a 50-μm pixel size for image visualisation. A 10 μl reference droplet, containing a known amount of radioactivity, was incorporated to facilitate the quantification of the autoradiogram.
The pixel values, measured in counts/mm^2, were transformed into Bq/mm^2 using the internal reference.

GLP-1R [2] = test system: GLP-1R
Excerpt: Pigs (n = 9) were positioned in the PET/CT scanner (Discovery MI, GE Healthcare) in a supine position with the brain at the centre of the Field of View (FOV). […] The peptide mass dose was chosen to avoid self-block of the GLP-1R by unlabelled DO3A-Exendin-4 peptide in the formulation and was based on previous dose-escalation studies in non-human primates.[23] A dynamic 60-min PET scan was started at tracer injection, serving as the baseline scan to visualise and quantify GLP-1R expression under normal physiological conditions prior to drug intervention. Following the dynamic scan, a whole-body CT was acquired, immediately followed by a whole-body static PET scan covering the regions from the brain to the bladder.
One experiment used unlabelled DO3A-VS-Exendin-4 (6 μg/kg) as a positive control (Table 4).
The follow-up scan was designed to assess the decreased binding of the tracer to its receptor, which, when compared to the baseline scan, would indicate reduced receptor availability, such as that caused by drug occupancy at the target GLP-1 receptor.
The reconstructed dynamic and whole-body static PET images were analysed using PMOD Base Functionality (PBAS) tool (PMOD Technologies LLC, Zurich, Switzerland) through manual segmentation on trans-axial PET and CT projections. Segmented tissues included the descending aorta, pancreas, liver, spleen, kidneys, and muscle. The tracer distribution in brain regions was measured by automated segmentation of brain regions. This was achieved by fusing the acquired PET dynamic images with the PMOD MRI pig brain atlas. […] CVOs, such as pituitary gland, were not included in the brain atlas and were thus segmented manually.
as §2
The target engagement or drug occupancy for each experiment was calculated by subtracting the SUV in a tissue at the follow-up scan from the SUV in the same tissue at the baseline scan. The difference was divided by the SUV in tissue at baseline and multiplied by 100 to reach the percentage of drug occupancy (Equation 1):Equation 1 Occupancy(%)=SUVbaseline−SUVfollow−up/SUVbaseline×100
All PET measurements were expressed as average SUVmean.

[3] = cited from earlier work
Excerpt: (§1) This can likely be explained by the lower GLP-1R affinity of tirzepatide, which instead is shifted towards higher affinity to the GIPR.[26]

GIPR [4] = details: in vitro; cited from earlier work
Excerpt: as §1

GLP-1R [5] = details: in vitro; cited from earlier work
Excerpt: as §1

[6] = cited from earlier work; remark: listed apart in the source
Excerpt: Tirzepatide is the first dual GLP-1R/GIPR agonist approved for the treatment of type 2 diabetes (T2D).[11]

[7] = pre-administration of unlabelled peptide as positive control, 6 μg/kg / 10 μg/kg (Table 4), n = 1
[8] = even at highest doses (450 μg/kg) s.c.

glucagon-like peptide-1 (HAEGTFTSDVSSYLEGQAAKEFIAWLVKGR; ends and bridges not checked; UniProt P01275 98-127, looked up) [GLP-1, endogenous incretin hormone]
food intake (mice): reduced food intake

glucose-dependent insulinotropic polypeptide [GIP (1–42)]
decrease of pancreatic [^68Ga]S02-GIP-T4 signal (GIPR [1]): 24%
food intake (mice): reduced food intake

DO3A-Exendin-4: unlabelled peptide used for blocking, positive control; made by in-house SPPS by Sanofi
reduction of [^68Ga]Ga-DO3A-Exendin-4 binding (human GLP-1R; pre-incubated with 1 μM (10 min, PBS + 1% BSA)): 80 ± 16%
decrease of [^68Ga]Ga-DO3A-Exendin-4 uptake in pancreas (GLP-1R [2]; [7]): 73%
decrease of [^68Ga]Ga-DO3A-Exendin-4 uptake in pituitary gland (GLP-1R [2]; [7]): 53%
reduction of [^68Ga]Ga-DO3A-Exendin-4 uptake in hypothalamic region (GLP-1R [2]; [7]): 55%
reduction of [^68Ga]Ga-DO3A-Exendin-4 uptake in mammillary body (GLP-1R [2]; [7]): 60%

tirzepatide: first dual GLP-1R/GIPR agonist approved for the treatment of type 2 diabetes
competition with [^68Ga]Ga-DO3A-Exendin-4 at GLP-1R (human GLP-1R; 10 μM): competed for an overlapping binding site of GLP-1R
reduction of [^68Ga]Ga-DO3A-Exendin-4 binding (human GLP-1R; pre-incubated with 10 μM): 84.9 ± 7%
occupancy in appetite-regulating brain regions (GLP-1R [2]; 50–450 μg/kg s.c., experimental design not aligned with Tmax): did not show detectable occupancy
GLP-1R occupancy in pancreas, did not exceed (GLP-1R [2]; [8]): ≤ 60%
GLP-1R occupancy in pituitary, did not exceed (GLP-1R [2]; [8]): ≤ 60%
Tmax (in words) ([3]; extended plasma half-life, no reference given): on the order of days
Tmax ([3]; subcutaneous): 8 to 72 h
affinity to GIPR vs endogenous GIP(1–42) (GIPR [4]): same affinity
affinity to GLP-1R vs native GLP-1 (GLP-1R [5]): fivefold lower affinity
glucose-lowering effect vs mono GLP-1R agonism [6]: greater glucose-lowering effect
weight reduction vs mono GLP-1R agonism [6]: greater weight reduction
